Each compound was assayed on human CTPS1 (assay: RapidFire/MS-based enzyme selectivity assay, human CTPS1). Conditions: calculated from the CTPS1 and CTPS2 IC50 values.
Assay type: biochemical
Description: The enzyme inhibitory activities against each target isoform of interest may be determined for the compounds of the invention using an optimised RapidFire high-throughput mass spectrometry (RF/MS) assay format. RF/MS assays for both human CTPS1 and CTPS2 may be performed in assay buffer consisting of 50mM HEPES (Merck), 20mM MgCl2, 5mM KCI, 1mM DTT, 0.01% Tween-20, pH to 8.0 accordingly. Human full-length active C-terminal FLAG-His-tag CTPS1 (UniProtKB - P17812, CTPS[1-591]-[…]) may be obtained from Proteros biostructures GmbH. Human full length active C-terminal FLAG-His-Avi tagged CTPS2 (UniProtKB-Q9NRF8, CTPS2 [1-586]- […]) may be obtained from Harker Bio.
Human CTPS (1 or 2) protein may be prepared in lx assay buffer to the final working protein concentration required for the reaction. A 2uL volume per well of 2× CTPS (1 or 2) protein may be mixed with 40nL of compound using acoustic (ECHO) delivery and incubated for 10 minutes at 25° C. Each isoform enzymatic reaction may be subsequently initiated by addition of 2uL per well of a 2× substrate mix in assay buffer. For hCTPS1: ATP (0.3mM), UTP (0.2mM), GTP (0.07mM) and L-glutamine (0.1mM). For hCTPS2: ATP (0.1mM), UTP (0.04mM), GTP (0.03mM) and L-glutamine (0.1mM). Each mixture may be incubated for an appropriate amount of time per isoform within the determined linear phase of the reaction at 25° C. A 60uL volume of stop solution (1% formic acid with 0.5uM ^13C9-^15N3-CTP in H2O) may be added and the plate immediately heat-sealed and centrifuged for 10 minutes at 4,000rpm. Following centrifugation, plates may be loaded onto the Agilent RapidFire microfluidic solid phase extraction system coupled to an AP14000 triple quadrupole mass spectrometer (RF/MS) for analysis.
In all cases, the enzyme converts UTP to CTP. Highly specific and sensitive multiple reaction monitoring (MRM) MS methods may be optimised for the detection of the enzymatic reaction product, CTP, and the stable isotope labelled product standard ^13C9-^15N3-CTP. Readout for data analysis may be calculated as the ratio between the peak area of the product CTP and the internal standard ^13C9-^15N3-CTP. For data reporting, the following equation may be used:
[formula] (R=ratio/readout, P=product signal area, IS=internal standard signal area)
For each screening plate, the means of the negative (DMSO) and positive control values were used for the calculation of the respective assay window (S/B) and Z′ values. The median of the respective control values was used for calculation of percent inhibition according to the following equation:
[formula] (I=Inhibition, Rneg=median of negative control readout values, Rpos=median of positive control readout values, Rsample=sample readout value)
Percentage inhibition was then plotted against compound concentration, and the 50% inhibitory concentration (IC50) was determined from the resultant concentration-response curve.
Fold selectivity between CTPS1 and CTPS2 was subsequently calculated according to the following equation: […]
`CCOc1cncc(-c2ccc(NC(=O)C(C)(OC)c3cncc(NS(=O)(=O)C4CC4)n3)nc2)n1` (single isomer, unassigned) [P205b, 2-(6-(cyclopropanesulfonamido)pyrazin-2-yl)-N-(5-(6-ethoxypyrazin-2-yl)pyridin-2-yl)-2-methoxypropanamide] was tested, and the “Selectivity (fold selectivity between CTPS1 and CTPS2)” value was “++ (>30-60 fold (++))”.
For `CC(C)Oc1cncc(-c2ccc(NC(=O)C(C)(C)c3ccnc(NS(=O)(=O)C4CC4)n3)c(F)c2)n1` [P39, 2-(2-(cyclopropanesulfonamido)pyrimidin-4-yl)-N-(2-fluoro-4-(6-isopropoxypyrazin-2-yl)phenyl)-2-methylpropanamide], the “Selectivity (fold selectivity between CTPS1 and CTPS2)” value was “+ (2-30 fold (+))”.
`CCOc1cncc(-c2ccc(NC(=O)C(C)(C)c3ccnc(NS(=O)(=O)C4CC4)n3)c(F)c2)n1` [P38, 2-(2-(cyclopropanesulfonamido)pyrimidin-4-yl)-N-(4-(6-ethoxypyrazin-2-yl)-2-fluorophenyl)-2-methylpropanamide] was tested, and the “Selectivity (fold selectivity between CTPS1 and CTPS2)” value was “+ (2-30 fold (+))”.
With `CCOc1cncc(-c2ccc(NC(=O)C(C)(OC)c3cncc(NS(=O)(=O)C4CC4)n3)nc2)n1` (single isomer, unassigned) [P205a, 2-(6-(cyclopropanesulfonamido)pyrazin-2-yl)-N-(5-(6-ethoxypyrazin-2-yl)pyridin-2-yl)-2-methoxypropanamide] the “Selectivity (fold selectivity between CTPS1 and CTPS2)” value was “+++ (>60 fold (+++))”.
`CCOc1cncc(-c2ccc(NC(=O)C(CCOC)c3ccnc(NS(=O)(=O)C4CC4)n3)c(F)c2)n1` (stereo not drawn) [P146, 2-(2-(cyclopropanesulfonamido)pyrimidin-4-yl)-N-(4-(6-ethoxypyrazin-2-yl)-2-fluorophenyl)-4-methoxybutanamide] was tested, and the “Selectivity (fold selectivity between CTPS1 and CTPS2)” value was “+++ (>60 fold (+++))”.
For `CCOc1cncc(-c2ccc(NC(=O)C3(c4ccnc(NS(=O)(=O)C5CC5)n4)CCOCC3)nc2)n1` [P115, 4-(2-(cyclopropanesulfonamido)pyrimidin-4-yl)-N-(5-(6-ethoxypyrazin-2-yl)pyridin-2-yl)tetrahydro-2H-pyran-4-carboxamide], the “Selectivity (fold selectivity between CTPS1 and CTPS2)” value was “+++ (>60 fold (+++))”.
With `CCOc1cncc(-c2ccc(NC(=O)C(C)(C)c3ccnc(NS(=O)(=O)C4CC4)n3)cc2)n1` [P65, 2-(2-(cyclopropanesulfonamido)pyrimidin-4-yl)-N-(4-(6-ethoxypyrazin-2-yl)phenyl)-2-methylpropanamide] the “Selectivity (fold selectivity between CTPS1 and CTPS2)” value was “++ (>30-60 fold (++))”.
`CC(C)Oc1cncc(-c2ccc(C(=O)NC(C)(C)c3cncc(NS(=O)(=O)C4CC4)n3)c(F)c2)n1` [P221, N-(2-(6-(cyclopropanesulfonamido)pyrazin-2-yl)propan-2-yl)-2-fluoro-4-(6-isopropoxypyrazin-2-yl)benzamide] was tested, and the “Selectivity (fold selectivity between CTPS1 and CTPS2)” value was “+ (2-30 fold (+))”.
For `CCOc1cncc(-c2ccc(NC(=O)C(C)(C)c3ccnc(NS(=O)(=O)C4CC4)n3)c(C#N)c2)n1` [P34, N-(2-cyano-4-(6-ethoxypyrazin-2-yl)phenyl)-2-(2-(cyclopropanesulfonamido)pyrimidin-4-yl)-2-methylpropanamide], the “Selectivity (fold selectivity between CTPS1 and CTPS2)” value was “+ (2-30 fold (+))”.
For `CCOc1cncc(-c2ccc(NC(=O)C3(c4ccnc(NS(=O)(=O)C5CC5)n4)CC3)cc2)n1` [P83, 1-(2-(cyclopropanesulfonamido)pyrimidin-4-yl)-N-(4-(6-ethoxypyrazin-2-yl)phenyl)cyclopropanecarboxamide], the “Selectivity (fold selectivity between CTPS1 and CTPS2)” value was “+++ (>60 fold (+++))”.
With `CC(C)Oc1cncc(-c2ccc(NC(=O)Cc3ccnc(NS(=O)(=O)C4CC4)n3)cc2)n1` [P21, 2-(2-(cyclopropanesulfonamido)pyrimidin-4-yl)-N-(4-(6-isopropoxypyrazin-2-yl)phenyl)acetamide] the “Selectivity (fold selectivity between CTPS1 and CTPS2)” value was “++ (>30-60 fold (++))”.
In the case of `CCOc1cncc(-c2ccc(NC(=O)C(C)(C)c3nc(NS(=O)(=O)C4CC4)ncc3C)cc2)n1` [P70, 2-(2-(cyclopropanesulfonamido)-5-methylpyrimidin-4-yl)-N-(4-(6-ethoxypyrazin-2-yl)phenyl)-2-methylpropanamide], the “Selectivity (fold selectivity between CTPS1 and CTPS2)” value is reported as “+ (2-30 fold (+))”.
In the case of `CCOc1cncc(-c2ccc(NC(=O)C(C)(C)c3cncc(NS(=O)(=O)C4CC4)n3)nc2)n1` [P195, 2-(6-(cyclopropanesulfonamido)pyrazin-2-yl)-N-(5-(6-ethoxypyrazin-2-yl)pyridin-2-yl)-2-methylpropanamide], the “Selectivity (fold selectivity between CTPS1 and CTPS2)” value is reported as “+++ (>60 fold (+++))”.
In the case of `CCOc1cncc(-c2ccc(NC(=O)C(OC)c3ccnc(NS(=O)(=O)C4CC4)n3)cc2)n1` (stereo not drawn) [P164, 2-(2-(cyclopropanesulfonamido)pyrimidin-4-yl)-N-(4-(6-ethoxypyrazin-2-yl)phenyl)-2-methoxyacetamide], the “Selectivity (fold selectivity between CTPS1 and CTPS2)” value is reported as “+ (2-30 fold (+))”.
With `CCOc1cncc(-c2ccc(NC(=O)C3(c4cncc(NS(=O)(=O)C5CC5)n4)CCOCC3)nc2)n1` [P197, 4-(6-(cyclopropanesulfonamido)pyrazin-2-yl)-N-(5-(6-ethoxypyrazin-2-yl)pyridin-2-yl)tetrahydro-2H-pyran-4-carboxamide] the “Selectivity (fold selectivity between CTPS1 and CTPS2)” value was “+++ (>60 fold (+++))”.
In the case of `CCOc1cncc(-c2ccc(NC(=O)C(C)(C)c3nc(NS(=O)(=O)C4CC4)ncc3F)cc2)n1` [P68, 2-(2-(cyclopropanesulfonamido)-5-fluoropyrimidin-4-yl)-N-(4-(6-ethoxypyrazin-2-yl)phenyl)-2-methylpropanamide], the “Selectivity (fold selectivity between CTPS1 and CTPS2)” value is reported as “++ (>30-60 fold (++))”.
`CCOc1cncc(-c2ccc(NC(=O)C(CCOC)c3ccnc(NS(=O)(=O)C4CC4)n3)nc2)n1` (stereo not drawn) [P145, 2-(2-(cyclopropanesulfonamido)pyrimidin-4-yl)-N-(5-(6-ethoxypyrazin-2-yl)pyridin-2-yl)-4-methoxybutanamide] was tested, and the “Selectivity (fold selectivity between CTPS1 and CTPS2)” value was “+++ (>60 fold (+++))”.
`CC(C)(C(=O)Nc1ccc(-c2cccnc2)cc1)c1ccnc(NS(=O)(=O)C2CC2)n1` [P59, 2-(2-(cyclopropanesulfonamido)pyrimidin-4-yl)-2-methyl-N-(4-(pyridin-3-yl)phenyl)propanamide] was tested, and the “Selectivity (fold selectivity between CTPS1 and CTPS2)” value was “+ (2-30 fold (+))”.
In the case of `CCOc1cncc(-c2ccc(NC(=O)C3(c4ccnc(NS(=O)(=O)C5CC5)n4)CCOCC3)c(F)c2)n1` [P143, 4-(2-(cyclopropanesulfonamido)pyrimidin-4-yl)-N-(4-(6-ethoxypyrazin-2-yl)-2-fluorophenyl)tetrahydro-2H-pyran-4-carboxamide], the “Selectivity (fold selectivity between CTPS1 and CTPS2)” value is reported as “+++ (>60 fold (+++))”.
In the case of `CCOc1cncc(-c2ccc(NC(=O)C(C)(C)c3ccnc(NS(=O)(=O)CC)n3)cc2)n1` [P74, N-(4-(6-ethoxypyrazin-2-yl)phenyl)-2-(2-(ethylsulfonamido)pyrimidin-4-yl)-2-methylpropanamide], the “Selectivity (fold selectivity between CTPS1 and CTPS2)” value is reported as “++ (>30-60 fold (++))”.
With `CCOc1cncc(-c2ccc(NC(=O)C(F)(CC)c3ccnc(NS(C)(=O)=O)n3)nc2)n1` (stereo not drawn) [P151, N-(5-(6-ethoxypyrazin-2-yl)pyridin-2-yl)-2-fluoro-2-(2-(methylsulfonamido)pyrimidin-4-yl)butanamide] the “Selectivity (fold selectivity between CTPS1 and CTPS2)” value was “+++ (>60 fold (+++))”.
`O=C(Cc1ccnc(NS(=O)(=O)C2CC2)n1)Nc1ccc(-c2cccnc2)cc1` [P16, 2-(2-(cyclopropanesulfonamido)pyrimidin-4-yl)-N-(4-(pyridin-3-yl)phenyl)acetamide] was tested, and the “Selectivity (fold selectivity between CTPS1 and CTPS2)” value was “++ (>30-60 fold (++))”.
With `CCOc1cncc(-c2ccc(NC(=O)C(C)(C)c3ccnc(NS(=O)(=O)C4CC4)n3)nc2)n1` [P31, 2-(2-(cyclopropanesulfonamido)pyrimidin-4-yl)-N-(5-(6-ethoxypyrazin-2-yl)pyridin-2-yl)-2-methylpropanamide] the “Selectivity (fold selectivity between CTPS1 and CTPS2)” value was “+++ (>60 fold (+++))”.
With `CCOc1cncc(-c2ccc(NC(=O)C(C)(C)c3ccnc(NS(C)(=O)=O)n3)nc2)n1` [P76, N-(5-(6-ethoxypyrazin-2-yl)pyridin-2-yl)-2-methyl-2-(2-(methylsulfonamido)pyrimidin-4-yl)propanamide] the “Selectivity (fold selectivity between CTPS1 and CTPS2)” value was “++ (>30-60 fold (++))”.
